What is called IC50 is the concentration at which inhibition is half-maximal.

The structures appear in SMILES notation. Read-outs that look alike come from different tables or passages of the source.

Experimental findings from patent US20250186456A1, “PYRIMIDINE-FUSED CYCLIC COMPOUND AND PREPARATION METHOD AND USE THEREOF” (Genfleet Therapeutics (Shanghai) Inc., priority 2021, published 2025) are described below.

What all share (assay type): cell-based, human
Experiment [1] concerns p-ERK in AGS cells (KRAS G12D mutation). The experiment in a line: Cell p-ERK assay (HTRF, Advance ERK phospho-T202/Y204 kit). The note with it: AGS cells, 3 hours incubation with compound, HTRF, read-out: AGS p-ERK IC50. The essentials:
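Phospho-ERK (T202/Y204) measured by HTRF in lysates of human gastric AGS cells carrying KRAS G12D, after 3 h compound exposure at 0.1% DMSO over a 3.16-fold series. Percent inhibition relative to DMSO control and lysis-only blank; four-parameter curve fitting gave IC50.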
Background: Time-resolved FRET reads energy transfer from a long-lived donor to a nearby acceptor.

In a further experiment the test system is AGS cells (KRAS G12D). The experiment in a line: Cell proliferation inhibition assay, 3D, CellTiter-Glo 3D, AGS. To be noted: AGS 3D sphere model, 5 days incubation. The method in brief: (§1)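 Spheroids (800 AsPC-1 or 400 AGS cells/well; RPMI-1640 or F-12K with 10% FBS) formed overnight, then were dosed on day 2 with a 3.16-fold series at 0.1% DMSO. After 5 days, viability was read by CellTiter-Glo 3D luminescence, and IC50 came from four-parameter fits of inhibition versus DMSO control and medium blank.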

For experiment [2], the system named is AsPC-1 cells (KRAS G12D mutation). The experiment in a line: Cell proliferation inhibition assay, 3D, CellTiter-Glo 3D, AsPC-1. To be noted: AsPC-1 3D sphere model, 5 days incubation. The method in brief:
as §1

With `C#Cc1c(F)ccc2cccc(-c3nc4c5c(nc(OC[C@@]67CCCN6CCC7=C)nc5c3F)N3C[C@H]5CC[C@H](N5)[C@H]3[C@H](C)O4)c12` [Example Z639, (5S,5aS,6S,9R)-2-(8-ethynyl-7-fluoronaphthalen-1-yl)-1-fluoro-5-methyl-12-(((S)-1-methylenetetrahydro-1H-pyrrolizin-7a (5H)-yl)methoxy)-5a,6,7,8,9,10-hexahydro-5H-4-oxa-3,10a, 11, 13,14-pentaaza-6,9-methanonaphtho[1,8-ab]heptalene], the half-maximal inhibitory concentration (IC50) in experiment [1] (Homo sapiens) was found to be 33.4 nM; in the experiment on AGS cells (KRAS G12D) (Homo sapiens, 120 h) it was 113 nM; in experiment [2] (Homo sapiens, ASPC1, 120 h), 93.7 nM.
In the same order, the values of `Cc1cc(N)c(C)c(-c2nc3c4c(nc(OCC5(CN6CCOCC6)CC5)nc4c2F)N2C[C@H]4CC[C@H](N4)[C@H]2[C@H](C)O3)c1C1CC1` [Example Z717, 4-cyclopropyl-3-((5S,5aS,6S,9R)-1-fluoro-5-methyl-12-((1-(morpholinomethyl)cyclopropyl)methoxy)-5a,6,7,8,9,10-hexahydro-5H-4-oxa-3,10a, 11,13,14-pentaaza-6,9-methanonaphtho[1,8-ab]heptalen-2-yl)-2,5-dimethylaniline] are 14.8 nM, 29.1 nM and 50.2 nM.
As to `C#Cc1cccc2c(F)c(N)cc(-c3nc4c5c(nc(OCC6(CN7CCOCC7)CC6)nc5c3F)N3C[C@H]5CC[C@H](N5)[C@H]3[C@H](C)O4)c12` [Example Z715, 5-ethynyl-1-fluoro-4-((5S,5aS,6S,9R)-1-fluoro-5-methyl-12-((1-(morpholinomethyl)cyclopropyl)methoxy)-5a,6,7,8,9,10-hexahydro-5H-4-oxa-3,10a, 11,13, 14-pentaaza-6,9-methanonaphtho[1,8-ab]heptalen-2-yl) naphthalen-2-amine], the half-maximal inhibitory concentration (IC50) in experiment [1] (Homo sapiens) is 1.94 nM; in the experiment with AGS cells (KRAS G12D) (Homo sapiens, 120 h), 3.44 nM; in experiment [2] (Homo sapiens, ASPC1, 120 h) it was 3.83 nM.
With `C#Cc1c(F)ccc2cccc(-c3nc4c5c(nc(OCC67CCC8(CC8)N6CC(=C)C7)nc5c3F)N3C[C@H]5CC[C@H](N5)[C@H]3[C@H](C)O4)c12` (stereo partly drawn) [Example Z597], the IC50 in experiment [1] came to 48.5 nM; with AGS cells (KRAS G12D) it was 47.9 nM; in experiment [2] it was 98.7 nM.
For `C#Cc1c(F)ccc2cccc(-c3nc4c5c(nc(OCC67CC(=C)CN6CC(=C)C7)nc5c3F)N3C[C@H]5CC[C@H](N5)[C@H]3[C@H](C)O4)c12` [Example Z388, (5S,5aS,6S,9R)-12-((2,6-dimethylenetetrahydro-1H-pyrrolizin-7a (5H)-yl)methoxy)-2-(8-ethynyl-7-fluoronaphthalen-1-yl)-1-fluoro-5-methyl-5a,6,7,8,9,10-hexahydro-5H-4-oxa-3,10a, 11, 13,14-pentaaza-6,9-methanonaphtho[1,8-ab]heptalene], the half-inhibitory concentration (IC50) stood at 17.9 nM in experiment [1] (Homo sapiens); 53.1 nM in the experiment on AGS cells (KRAS G12D) (Homo sapiens, 120 h); 191 nM in experiment [2] (Homo sapiens, ASPC1, 120 h).
Turning to `C#Cc1cccc2cc(N)cc(-c3nc4c5c(nc(O[C@@H]6CCC[C@H]6O)nc5c3F)N3C[C@H]5CC[C@H](N5)[C@H]3[C@H](C)O4)c12` [Example Z718, (1R,2R)-2-(((5S,5aS,6S,9R)-2-(3-amino-8-ethynylnaphthalen-1-yl)-1-fluoro-5-methyl-5a,6,7,8,9,10-hexahydro-5H-4-oxa-3,10a,11,13,14-pentaaza-6,9-methanonaphtho[1,8-ab]heptalen-12-yl)oxy)cyclopentan-1-ol], the half-inhibitory concentration (IC50) in experiment [1] (Homo sapiens) was 157 nM; in the experiment on AGS cells (KRAS G12D) (Homo sapiens, 120 h), 455 nM; in experiment [2] (Homo sapiens, ASPC1, 120 h) it was 429 nM.
For `C#Cc1c(F)ccc2cc(O)cc(-c3nc4c5c(nc(OC[C@@]67CCCN6C[C@H](F)C7)nc5c3F)N3C[C@H]5CC[C@H](N5)[C@H]3[C@H](C)O4)c12` [Example Z552, 5-ethynyl-6-fluoro-4-((5S,5aS,6S,9R)-1-fluoro-12-(((2R,7aS)-2-fluorotetrahydro-1H-pyrrolizin-7a (5H)-yl)methoxy)-5-methyl-5a,6,7,8,9,10-hexahydro-5H-4-oxa-3,10a,11,13,14-pentaaza-6,9-methanonaphtho[1,8-ab]heptalen-2-yl) naphthalen-2-ol] the same measures were 0.67 nM, 0.53 nM and 5.77 nM.
